Data on one substance can be found in patent US20240043473A1, “NOOTROPIC PEPTIDES FOR TREATING LYSOSOMAL STORAGE DISEASES” (Phoenix Nest Inc., priority 2021, published 2024).

“Also recorded” adds a separate entry of the source. No end group written: not given here.

In experiment [1] the test system is iPSC-derived cortical neurons from MPS IIIA and MPS IIIC patients. The experiment can be described thus: Synaptic protein markers and BDNF in iPSC-derived cultured cortical neurons (immunocytochemistry). It is filed as cell-based, human. As to conditions: 10 μM in culture; MPS IIIA and MPS IIIC patient neurons. From the text:
Generation of iPSC lines MPS III patient fibroblast lines were obtained from the Coriell Institute for Medical Research (NJ, USA), or from the hospitals were the patients were diagnosed/followed with the informed consent of patient's families. The fibroblasts were propagated in Dulbecco's Modified Eagle Medium (DMEM, ThermoFisher) with 10% fetal bovine serum (FBS) and 1% Antibiotic-Antimycotic (15240062, ThermoFisher) and tested for mycoplasma. The cells were further reprogrammed into iPSCs at the CHUSJ iPSC Platform using a non-integrating CytoTune-Sendai viral reprograming kit (A16517, Thermo Fisher Scientific, MA, USA) according to the manufacture's protocol. Two colonies for each iPSC line were used for further proliferation, iPSCs were expanded and maintained on six-well plates coated with Matrigel mTeSR™ Plus medium at 37° C., in 5% CO2/5% O2 atmosphere following the medium manufacturer's protocol. […]
Induction of cortical NPC and cortical neurons iPSCs were differentiated into cortical forebrain committed neural precursor cells (NPCs) by dual SMAD inhibition by passaging iPSCs over to poly-L-ornithine (PO)/laminin coated dishes. […] After induction for 3 weeks the cells were analyzed by ICH for the presence of neuronal markers PAX6, and TUBB3, confirmation of disease-specific enzymatic deficiencies and lysosomal storage phenotype (increased size of LAMP2+ puncta by ICH). […]

Experiment [2] relates to Hgsnat^P304L and Hgsnat-Geo MPS IIIC mice. Kind of experiment: Elevated Plus Maze test. In kind it is in vivo, mouse. The method, then: Method: Elevated plus maze that measures a natural fear of heights reflex of animals. AVP6 was administered intranasally at 50 μg/kg (5 μl/nostril) to the animals 17 h before the experiment.
The elevated plus-maze test was performed as follows. Each mouse was placed in the center of the elevated plus maze and allowed to freely explore undisturbed for 10 min. After each testing, the mouse was returned to the home cage and the arena was cleaned with 70% ethanol before the commencement of the next test. Analysis of the behavioral activity (percentage of time spent in the center zone, closed arms, and open arms; as well as the number of open arm entries) was done by the Smart v3.0 software.
Starting from 3 weeks of age, WT C57B16 and homozygous Hgsnat^P304L male and female mice were randomly divided in treatment and control groups (6-13 mice/sex/genotype/treatment; see Table I). The control group was daily administered with saline (5 μL to each nostril), while for the treatment group, saline was supplemented with 125 µg of AVP6/mL, which would result in a dose of approximately 50 μg/kg BW/day. The peptide formulation was prepared once, aliquoted and kept frozen at −80° C. until use. At 4 months, all mice were studied by EPM, OF, YM and NOR behavioral tests. Administration of the drug or saline was continued through the days on which the assays were conducted. Then approximately at 5 months 4-5 mice in each group were sacrificed. Their blood plasma was collected, and their tissues were either snap-frozen or fixed and cryopreserved to analyze CNS pathology as described above. For the remaining mice, treatment was continued and their behaviour was studied again at the age of 6 months using OF. NOR and YM tests. Starting from the age of 8 months, Hgsnat^P304L treated and untreated mice were daily studied for the signs of urinary retention. When such signs were detected, the mice were studied by ERG and sacrificed within 1-2 days. Finally, the remaining treated and untreated WT mice were studied by ERG and sacrificed at the end of the study, approximately at 10 months of age.

The test system of another experiment is Hgsnat^P304L mice. Kind of experiment: Survival / onset of lethal urinary retention under chronic daily treatment. The note with it: chronic daily 50 μg/kg BW; AVP6-treated Hgsnat^P304L mice. It is filed as in vivo, mouse. As to the method:
Starting from 3 weeks of age, WT C57B16 and homozygous Hgsnat^P304L male and female mice were randomly divided in treatment and control groups (6-13 mice/sex/genotype/treatment; see Table I). The control group was daily administered with saline (5 μL to each nostril), while for the treatment group, saline was supplemented with 125 µg of AVP6/mL, which would result in a dose of approximately 50 μg/kg BW/day. The peptide formulation was prepared once, aliquoted and kept frozen at −80° C. until use. At 4 months, all mice were studied by EPM, OF, YM and NOR behavioral tests. Administration of the drug or saline was continued through the days on which the assays were conducted. Then approximately at 5 months 4-5 mice in each group were sacrificed. […] When such signs were detected, the mice were studied by ERG and sacrificed within 1-2 days. […]
Unlike human MPS III patients, Hgsnat^P304L mice at the age of approximately 8 months develop urinary retention resulting in abdominal distension and requiring humane euthanasia. […] Previously we determined the average survival age of Hgsnat^P304L mice as 42 weeks. To test whether the AVP6 treatment delayed development of this phenotype, mice in both treatment and vehicle groups were examined for the signs of urinary retention on a daily basis, starting from the age of 7 months, and immediately sacrificed, when abdominal distension was detected. […]

As for “AVP6: N-terminally acetylated Semax, a nootropic peptide having the amino acid sequence of MEHFPGP (SEQ ID NO:1) (Ac-MEHFPGP)”, in experiment [1], the “levels of BDNF+, VGLUT1+ and PSD-95+ puncta” value is “significantly increased”; the “levels of VGLUT1+, PSD-95+, SYN1+ and BDNF+ puncta” value is reported as “rescues reduced levels of synaptic markers; also recorded: significantly increased”. In addition, the “reduced fear (open arm entries, time in open arms), Elevated Plus Maze” value in experiment [2] (chronic daily intranasal 50 μg/kg BW from 3 weeks, Hgsnat^P304L mice at 4 months) is “showed no difference from their WT counterparts; also recorded: show the rescue of all above deficits”. In experiment [2] (chronic daily treatment, WT mice at 4 months), the “Elevated Plus Maze parameters in WT mice” value is “no effect of the drug was detected in the WT mice”. Also, in experiment [2] (single intranasal 50 μg/kg 17 h before test, Hgsnat-Geo mice, 6 months), the “reduced fear/anxiety, Elevated Plus Maze” value is “showed a behavior similar to their WT counterparts; also recorded: also rescues reduced anxiety in EPM test”. Also, in experiment [2] (single intranasal 50 μg/kg 17 h before test, Hgsnat^P311L (P304L) mice, 4 months), the “reduced fear (time spent in open arms, number of open arm entries), Elevated Plus Maze” value is recorded as “rescues reduced fear; also recorded: showed a behavior similar to their WT counterparts; also recorded: Both parameters are normalized”. For the same substance, the “average survival age / life span” value in the experiment with Hgsnat^P304L mice is 49 weeks.
